“Also recorded” adds a separate entry of the source.
Experiments:
[1] = system: E. coli LPS shock in C57BL/6 mice; experiment: LPS model in vivo (LPS-induced shock): survival, cytokines, lungs; design: species or system mouse
Description: Histochemistry—For immunostaining, wound biopsies were fixed in 10% formalin, rehydrated and embedded in paraffin. Sections of 5 μm thickness were placed on poly-lysine coated glass slides, deparaffinized in xylene and rehydrated in graded alcohols. The slides were then treated with Dako antigen retrieval solution (Dako) for 40 min at 97° C., and incubated for 24 h at room temperature in a 1:50 dilution of polyclonal antibodies against TFPI (Sigma-Aldrich, in TBS with 1% BSA, 5% goat serum, 0.05% Tween 20). After three 20 min washes in TBS with 0.05% Tween 20, the sections were incubated with alkaline phosphatase conjugated secondary goat anti-rabbit IgG (Dako) diluted 1:1000 in the same buffer as the primary antibody and incubated for another 24 hours, followed by three 20 min washes. Sections were developed with Vulcan Fast Red chromogen (Biocare Medical, Concord, Calif.) and the slides were counterstained with Harris Hematoxylin (EM Science, Gibbstown, N.J.). For histological evaluation of lungs derived from the in vivo LPS-models in mice, tissues were embedded as above, sectioned and stained with hematoxylin and eosin by routine procedures (Histocenter, Gothenburg, Sweden).
LPS model in vivo—Male C57BL/6 mice (8-10 weeks, 22+/−5 g), were injected intraperitoneally with 18 mg E. coli 0111:B4 LPS (Sigma) per kg of body weight. Thirty minutes after LPS injection, 0.5 mg GGL27, GGL27(S), DSE25 or buffer alone was injected intraperitoneally into the mice. Survival and status was followed during seven days. For blood collection and histochemistry, mice were sacrificed 20 h after LPS challenge, and lungs were removed and fixed. These experiments were approved by the Laboratory Animal Ethics Committee of Malmo/Lund.
Cytokine assay—The cytokines IL-6, IL-10, MCP-1, INF-γ, and TNF-α were measured in plasma from mice subjected to LPS (with or without peptide treatment) using the Cytometric bead array; mouse inflammation kit (Becton Dickinson AB) according to the manufacturer's instructions.

[2] = system: P. aeruginosa; experiment: Complement (C1q, C5b-9/MAC, C3a) binding to P. aeruginosa in citrate plasma (immunoblot, flow cytometry); format: cell-based, Pseudomonas aeruginosa; settings: citrate plasma with GGL27 at 3 μM
Description: Flow cytometry analysis—Fifty μl of bacteria (1-2×10^6 cfu) were incubated with 450 μl of human plasma either alone or supplemented with GGL27 (at 3 μM). Samples were incubated for 30 min or 1 h at 37° C., divided into two equal parts, centrifuged, washed with PBS, and resuspended in 100 μl PBS with rabbit polyclonal antibodies against either LGE27 (25), a C-terminal epitope of human C3a, or rabbit polyclonal antibodies against C1q (both at 1:100). The mixtures were subsequently incubated for 1 h at room temperature. Bacteria were pelleted and washed twice with PBS, incubated in 100 μl PBS with goat anti rabbit IgG FITC-labeled antibodies (1:500, Sigma) for 30 min at room temperature and washed twice with PBS. In another experiment bacteria were incubated for 1 h in citrate plasma together with 3 μM TAMRA-labeled GGL27 peptide, then pelleted and washed twice with PBS. Flow cytometry analysis (Becton-Dickinson, Franklin Lakes, N.J.) was performed using a FACS-Calibur flow cytometry system equipped with a 15 mW argon laser turned a 488 nm. […]
SDS-PAGE and immunoblotting—Human citrate plasma (450 μl) was incubated with 50 μl bacteria (1-2×10^9 cfu) either alone or supplemented with the peptide GGL27 at 3 μM. […] Precipitated material and supernatants were dissolved in SDS sample buffer and analyzed under reducing conditions by SDS-PAGE on 16.5% Tris-tricine gels (Clear PAGE™, C.B.S Scientific). […]

[3] = system: E. coli; experiment: Complement (C1q, C5b-9/MAC, C3a) binding to E. coli in citrate plasma (immunoblot, flow cytometry); format: cell-based, Escherichia coli; settings: citrate plasma with GGL27 at 3 μM
Description: (§1) Flow cytometry analysis—Fifty μl of bacteria (1-2×10^6 cfu) were incubated with 450 μl of human plasma either alone or supplemented with GGL27 (at 3 μM). Samples were incubated for 30 min or 1 h at 37° C., divided into two equal parts, centrifuged, washed with PBS, and resuspended in 100 μl PBS with rabbit polyclonal antibodies against either LGE27 (25), a C-terminal epitope of human C3a, or rabbit polyclonal antibodies against C1q (both at 1:100). The mixtures were subsequently incubated for 1 h at room temperature. Bacteria were pelleted and washed twice with PBS, incubated in 100 μl PBS with goat anti rabbit IgG FITC-labeled antibodies (1:500, Sigma) for 30 min at room temperature and washed twice with PBS. In another experiment bacteria were incubated for 1 h in citrate plasma together with 3 μM TAMRA-labeled GGL27 peptide, then pelleted and washed twice with PBS. Flow cytometry analysis (Becton-Dickinson, Franklin Lakes, N.J.) was performed using a FACS-Calibur flow cytometry system equipped with a 15 mW argon laser turned a 488 nm. The bacterial population was selected by gating with appropriate settings of forward scatter (FSC) and sideward scatter (SSC).
SDS-PAGE and immunoblotting—Human citrate plasma (450 μl) was incubated with 50 μl bacteria (1-2×10^9 cfu) either alone or supplemented with the peptide GGL27 at 3 μM. The mixture was incubated for 30 min or 1 h at 37° C., centrifuged, and supernatants and bacteria collected. The bacterial pellet was washed with PBS and bound proteins eluted with 0.1 M glycine-HCl, pH 2.0. The pH of the eluted material was raised to 7.5 with 1 M Tris. Eluted proteins were precipitated by addition of 1 volume of trichloroacetic acid (TCA) to 4 volumes of sample, followed by incubation for 30 min on ice and centrifugation at 15 000 g (4° C. for 20 min). Precipitated material and supernatants were dissolved in SDS sample buffer and analyzed under reducing conditions by SDS-PAGE on 16.5% Tris-tricine gels (Clear PAGE™, C.B.S Scientific). Proteins and peptides were transferred to nitrocellulose membranes (Hybond-C). […]

[4] = system: P. aeruginosa; experiment: FACS binding of TAMRA labeled peptide to P. aeruginosa; design: species or system Pseudomonas aeruginosa; settings: 3 μM TAMRA labeled peptide in human plasma
Description: as §1

[5] = system: P. aeruginosa infected mice; experiment: Animal infection model, P. aeruginosa; format: in vivo, mouse; settings: P. aeruginosa i.p.; GGL27 500 μg s.c. after 1 h; P<0.001
Description: (§2) Animal infection model—Animals were housed under standard conditions of light and temperature and had free access to standard laboratory chow and water. P. aeruginosa 15159 bacteria were grown to logarithmic phase (OD620˜0.5), harvested, washed in PBS, diluted in the same buffer to 2×10^8 cfu/ml, and kept on ice until injection. Hundred microliter of the bacterial suspension was injected intraperitoneally (i.p.) into female Balb/c mice. Sixty minutes after the bacterial injection, 0.5 mg GGL27 or buffer alone was injected subcutaneously (s.c.) into the mice. In a corresponding E. coli infection model, bacteria were grown to early logarithmic phase (OD620˜0.4), harvested, washed in PBS, diluted in the same buffer to 1×10^8 cfu/ml, and kept on ice until injection. Hundred microliter of the bacterial suspension was injected i.p. into female Balb/c mice. Thirty minutes after the bacterial injection, 0.2 mg of GGL27 peptide or buffer alone was injected i.p. Data from two independent experiments were pooled.

[6] = system: E. coli infected mice; experiment: Animal infection model, E. coli; format: in vivo, mouse; settings: E. coli i.p.; GGL27 200 μg i.p. after 30 min; P<0.001
Description: as §2

[7] = 20 h after LPS injection, peptide 500 μg

“GGLIKTKRKRKKQRVKIAYEEIFVKNM [GGL27, C-terminal peptide of TFPI, plasmin-generated]” was tested. Which “inflammatory changes in lungs (histochemical analysis)” value ([1]; 20 h after LPS injection, GGL27 500 μg) did it give?
Its value is “marked attenuation of inflammatory changes; also recorded: marked reduction of inflammation and vascular leakage”.

And the IFN-γ in blood [1, 7]?
The IFN-γ in blood was “significant reductions”.

And the IL-6 in blood [1, 7]?
The IL-6 in blood was “significant reductions”.

And the IL-10 in blood [1, 7]?
The IL-10 in blood was “increased”.

And the MCP-1 in blood [1, 7]?
The MCP-1 in blood was “significant reductions”.

And the TNF-α in blood [1, 7]?
The TNF-α in blood was “significant reductions”.

What about the “overall (proinflammatory) cytokine release” value [1, 7] of the same sequence?
Its value is “attenuates proinflammatory cytokines”.

What about the survival ([1]; E. coli LPS i.p., peptide 500 μg i.p. 30 minutes after, followed 7 days) of the same sequence?
The survival was “significantly increased survival”.

What about the “anti-endotoxic effects in vivo” value ([1]; mouse model of LPS-shock) of the same sequence?
The value was “anti-endotoxic effects”.

And the “generation and binding of C3a-containing fragments to the bacterial surface” value ([2]; FACS analysis)?
The value was “increased generation and binding of these C3a-containing fragments”.

And the C1q/MAC alterations [2]?
The C1q/MAC alterations was “no significant C1q/MAC alterations”.

And the “binding of C1q to bacteria” value [3]?
The value was “enhances; also recorded: enhanced binding of C1q”.

And the “formation of MAC” value [3]?
The value was “enhances; also recorded: increased formation of MAC”.

What about the “generation / binding of C3a” value [3] of the same sequence?
Its value is “enhances; also recorded: significant generation of C3a”.

What about the binding to bacteria [4] of the same sequence?
The binding to bacteria was “avidly bound”.

What about the survival [5] of the same sequence?
The survival was “prolongs survival; also recorded: prolongation of survival”.

What about the survival [6] of the same sequence?
The survival was “prolongs survival; also recorded: prolongation of survival”.

Reference: patent US20120189673A1, “POLYPEPTIDES AND USES THEREOF” (priority 2009, published 2012)
